The text below walks through data of publication PMC8955712, “Rapid Mining of Novel α-Glucosidase and Lipase Inhibitors from Streptomyces sp. HO1518 Using UPLC-QTOF-MS/MS” (Marine Drugs, 2022).

As usually defined, the IC50 is the concentration needed to halve the response being measured.

SMILES strings stand for the structures. Where two headings read alike, the source gives them in different places.

Format in all cases: biochemical
Assay [1] deals with T1, Porcine pancreatic α-amylase (PPA) (Sus scrofa, UniProt P00690).
T1 construct: purchased Sigma Aldrich Co. (St Louis, MO, USA)
T1 sequence (P00690 16-511): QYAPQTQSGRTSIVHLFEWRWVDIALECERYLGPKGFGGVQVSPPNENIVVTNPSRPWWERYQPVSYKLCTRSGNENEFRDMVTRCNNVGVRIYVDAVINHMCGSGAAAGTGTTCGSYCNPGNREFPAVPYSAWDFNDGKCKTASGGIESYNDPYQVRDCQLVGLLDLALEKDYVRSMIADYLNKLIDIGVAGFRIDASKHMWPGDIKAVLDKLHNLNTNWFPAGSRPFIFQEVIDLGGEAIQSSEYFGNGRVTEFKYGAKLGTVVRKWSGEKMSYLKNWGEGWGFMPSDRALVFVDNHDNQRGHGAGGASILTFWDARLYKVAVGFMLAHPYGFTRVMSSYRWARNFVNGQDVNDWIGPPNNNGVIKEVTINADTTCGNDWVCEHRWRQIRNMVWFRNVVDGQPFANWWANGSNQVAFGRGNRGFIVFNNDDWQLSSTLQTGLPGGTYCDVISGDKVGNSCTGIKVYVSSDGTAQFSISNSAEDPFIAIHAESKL
Description: PPA inhibition assay. The conditions noted are these: for IC50: read-out: IC50 Values Against PPA. From the text: (§1) The HPLC-grade methanol and acetonitrile were purchased from CINC High Purity Solvents (Shanghai) Co., Ltd. (Shanghai, China). The other solvents were of analytical grade (Sinopharm Chemical Reagent Co., Ltd., Beijing, China). Porcine pancreatic α-amylase (PPA) and PL were purchased from Sigma Aldrich Co. (St Louis, MO, USA). […] Standards 1–9 were previously isolated from Streptomyces sp. HO1518 by our group.

The next assay has as its target T2, pancreatic lipase (PL) (Sus scrofa, UniProt P00591).
T2 construct: purchased Sigma Aldrich Co. (St Louis, MO, USA)
T2 sequence (P00591 1-450): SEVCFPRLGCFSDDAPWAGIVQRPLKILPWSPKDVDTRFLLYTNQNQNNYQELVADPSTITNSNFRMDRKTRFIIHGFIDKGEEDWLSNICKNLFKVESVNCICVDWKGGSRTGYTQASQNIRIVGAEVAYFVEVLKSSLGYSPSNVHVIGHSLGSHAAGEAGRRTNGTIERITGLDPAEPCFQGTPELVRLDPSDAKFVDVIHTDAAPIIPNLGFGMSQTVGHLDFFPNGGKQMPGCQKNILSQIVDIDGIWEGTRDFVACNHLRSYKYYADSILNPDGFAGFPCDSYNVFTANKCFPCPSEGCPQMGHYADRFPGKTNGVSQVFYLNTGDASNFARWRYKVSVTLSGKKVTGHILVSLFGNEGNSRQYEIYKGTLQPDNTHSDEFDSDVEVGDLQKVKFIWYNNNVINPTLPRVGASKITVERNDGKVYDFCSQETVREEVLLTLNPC
Description: PL (lipase) inhibition assay. The conditions noted are these: read-out: IC50 Values Against PL.
Source text: as §1

A further assay deals with sucrase. Description: Sucrase inhibition assay. The note with it: mean ± SD; acarbose positive control; read-out: IC50 Values Against Sucrase. The text has this:
The HPLC-grade methanol and acetonitrile were purchased from CINC High Purity Solvents (Shanghai) Co., Ltd. (Shanghai, China). The other solvents were of analytical grade (Sinopharm Chemical Reagent Co., Ltd., Beijing, China). Porcine pancreatic α-amylase (PPA) and PL were purchased from Sigma Aldrich Co. (St Louis, MO, USA). Sucrase and acarbose were obtained from Shanghai yuanye Bio-Technology Co., Ltd. (Shanghai, China). Orlistat was bought from Shanghai xushuo Bio-Technology Co., Ltd. (Shanghai, China). Standards 1–9 were previously isolated from Streptomyces sp. HO1518 by our group.
The sucrase inhibition assay of compounds 9–20 was evaluated according to the previously reported method.

Setting [2] is: mean ± SD, acarbose positive control.
[3] abbreviates: mean ± SD, orlistat positive control.

Turning to `CC1OC(OC2C(CO)OC(OC3C(CO)=CC(NC4C(C)OC(OC5C(CO)OC(OC6C(CO)OC(OC7C(CO)OC(OC8C(CO)OC(O)C(O)C8O)C(O)C7O)C(O)C6O)C(O)C5O)C(O)C4O)C(O)C3O)C(O)C2O)C(O)C(O)C1NC1C=C(CO)C(O)C(O)C1O` (stereo not drawn) [Compound 9, acarviostatin II03], the “fold more effective than acarbose (α-amylase inhibition)” value in assay [1] (ratio of PPA IC50 values, acarbose vs compound) is 282 fold. The IC50 was found to be 0.03 ± 0.001 µM in assay [1], 7.64 ± 0.13 µM at pancreatic lipase (PL) and 17.2 ± 0.76 µM on sucrase.

Take `CC(O)CC(=O)OC[C@H]1O[C@H](O[C@H]2[C@H](O)[C@@H](O)[C@@H](O[C@H]3[C@H](O)[C@@H](O)[C@@H](O[C@H]4[C@H](O)[C@@H](O)C(O)O[C@@H]4CO)O[C@@H]3CO)O[C@@H]2CO)[C@H](O)[C@@H](O)[C@@H]1O[C@H]1O[C@H](C)[C@@H](N[C@H]2C=C(CO)[C@@H](O[C@H]3O[C@H](CO)[C@@H](O[C@H]4O[C@H](C)[C@@H](N[C@H]5C=C(CO)[C@@H](O)[C@H](O)[C@H]5O)[C@H](O)[C@H]4O)[C@H](O)[C@H]3O)[C@H](O)[C@H]2O)[C@H](O)[C@H]1O` (stereo partly drawn) [Compound 19, Hbu-Aca II03]: the half-maximal inhibitory concentration (IC50) in assay [1] (setting [2]) came out at 0.061 ± 0.005 µM; at pancreatic lipase (PL) (setting [3]) it was 1 ± 0.12 µM; on sucrase, 9.67 ± 0.1 µM.

Take `C[C@H]1O[C@H](O[C@H]2[C@H](O)[C@@H](O)[C@@H](O[C@H]3[C@H](O)[C@@H](O)[C@@H](O[C@H]4[C@H](O)[C@@H](O)[C@@H](O[C@H]5[C@H](O)[C@@H](O)C(O)O[C@@H]5CO)O[C@@H]4CO)O[C@@H]3CO)O[C@@H]2CO)[C@H](O)[C@@H](O)[C@@H]1N[C@H]1C=C(CO)[C@@H](O)[C@H](O)[C@H]1O` (stereo partly drawn) [Compound 17, acarviostatin I03]: the IC50 in assay [1] came to 0.296 ± 0.007 µM; on pancreatic lipase (PL), 31.6 ± 4.13 µM; on sucrase it was 11.1 ± 0.24 µM.

Consider `CC(C)C(=O)OC[C@H]1O[C@H](O[C@H]2[C@H](O)[C@@H](O)[C@@H](O[C@H]3[C@H](O)[C@@H](O)C(O)O[C@@H]3CO)O[C@@H]2CO)[C@H](O)[C@@H](O)[C@@H]1O[C@H]1O[C@H](C)[C@@H](N[C@H]2C=C(CO)[C@@H](O[C@H]3O[C@H](CO)[C@@H](O[C@H]4O[C@H](C)[C@@H](N[C@H]5C=C(CO)[C@@H](O)[C@H](O)[C@H]5O)[C@H](O)[C@H]4O)[C@H](O)[C@H]3O)[C@H](O)[C@H]2O)[C@H](O)[C@H]1O` (stereo partly drawn) [Compound 12, D6-O-Isobutyryl-acarviostatin II02], for which the IC50 in assay [1] is 0.085 ± 0.006 µM; on pancreatic lipase (PL), 5.48 ± 0.18 µM; at sucrase, 6.79 ± 0.06 µM.

On to `CCC(=O)OC[C@H]1O[C@H](O[C@H]2[C@H](O)[C@@H](O)[C@@H](O[C@H]3[C@H](O)[C@@H](O)C(O)O[C@@H]3CO)O[C@@H]2CO)[C@H](O)[C@@H](O)[C@@H]1O[C@H]1O[C@H](C)[C@@H](N[C@H]2C=C(CO)[C@@H](O[C@H]3O[C@H](CO)[C@@H](O[C@H]4O[C@H](C)[C@@H](N[C@H]5C=C(CO)[C@@H](O)[C@H](O)[C@H]5O)[C@H](O)[C@H]4O)[C@H](O)[C@H]3O)[C@H](O)[C@H]2O)[C@H](O)[C@H]1O` (stereo partly drawn) [Compound 11, D6-O-Propionyl-acarviostatin II02], for which the IC50 in assay [1] was found to be 0.079 ± 0.001 µM; at pancreatic lipase (PL) it was 7.22 ± 0.1 µM; at sucrase, 4.34 ± 0.24 µM.

Regarding `CC(C)CC(=O)OC[C@H]1O[C@H](O[C@H]2[C@H](O)[C@@H](O)[C@@H](O[C@H]3[C@H](O)[C@@H](O)C(O)O[C@@H]3CO)O[C@@H]2CO)[C@H](O)[C@@H](O)[C@@H]1O[C@H]1O[C@H](C)[C@@H](N[C@H]2C=C(CO)[C@@H](O[C@H]3O[C@H](CO)[C@@H](O[C@H]4O[C@H](C)[C@@H](N[C@H]5C=C(CO)[C@@H](O)[C@H](O)[C@H]5O)[C@H](O)[C@H]4O)[C@H](O)[C@H]3O)[C@H](O)[C@H]2O)[C@H](O)[C@H]1O` (stereo partly drawn) [Compound 13, D6-O-Isovaleryl-acarviostatin II02], the results for the IC50 (in assay [1]; on pancreatic lipase (PL); at sucrase) were 0.092 ± 0.001 µM, 1.56 ± 0.04 µM and 7.06 ± 0.09 µM, respectively.

Consider `C[C@H]1O[C@H](O[C@H]2[C@H](O)[C@@H](O)[C@@H](O[C@H]3[C@H](O)[C@@H](O)C(O)O[C@@H]3CO)O[C@@H]2CO)[C@H](O)[C@@H](O)[C@@H]1N[C@H]1C=C(CO)[C@@H](O)[C@H](O)[C@H]1O` (stereo partly drawn) [acarbose, reference compound], for which the IC50 stood at 191 ± 15.2 µM at pancreatic lipase (PL) and 2.34 ± 0.23 µM at sucrase.

Take `CC(C)CC(=O)OC[C@H]1O[C@H](O[C@H]2[C@H](O)[C@@H](O)[C@@H](O[C@H]3[C@H](O)[C@@H](O)[C@@H](O[C@H]4[C@H](O)[C@@H](O)C(O)O[C@@H]4CO)O[C@@H]3CO)O[C@@H]2CO)[C@H](O)[C@@H](O)[C@@H]1O[C@H]1O[C@H](C)[C@@H](N[C@H]2C=C(CO)[C@@H](O[C@H]3O[C@H](CO)[C@@H](O[C@H]4O[C@H](C)[C@@H](N[C@H]5C=C(CO)[C@@H](O)[C@H](O)[C@H]5O)[C@H](O)[C@H]4O)[C@H](O)[C@H]3O)[C@H](O)[C@H]2O)[C@H](O)[C@H]1O` (stereo partly drawn) [Compound 20, isoVa-Aca II03]: the IC50 came to 0.08 ± 0.003 µM in assay [1] (setting [2]), 1.43 ± 0.08 µM on pancreatic lipase (PL) (setting [3]) and 9.93 ± 0.5 µM on sucrase.

With `CCCC(=O)OC[C@H]1O[C@H](O[C@H]2[C@H](O)[C@@H](O)[C@@H](O[C@H]3[C@H](O)[C@@H](O)[C@@H](O[C@H]4[C@H](O)[C@@H](O)C(O)O[C@@H]4CO)O[C@@H]3CO)O[C@@H]2CO)[C@H](O)[C@@H](O)[C@@H]1O[C@H]1O[C@H](C)[C@@H](N[C@H]2C=C(CO)[C@@H](O[C@H]3O[C@H](CO)[C@@H](O[C@H]4O[C@H](C)[C@@H](N[C@H]5C=C(CO)[C@@H](O)[C@H](O)[C@H]5O)[C@H](O)[C@H]4O)[C@H](O)[C@H]3O)[C@H](O)[C@H]2O)[C@H](O)[C@H]1O` (stereo partly drawn) [Compound 15, D6-O-Butyryl-acarviostatin II03], the IC50 in assay [1] (setting [2]) was found to be 0.059 ± 0.007 µM; on pancreatic lipase (PL) (setting [3]), 4.46 ± 0.14 µM; at sucrase, 10.7 ± 2.6 µM.

`CCC(C)C(=O)OC[C@H]1O[C@H](O[C@H]2[C@H](O)[C@@H](O)[C@@H](O[C@H]3[C@H](O)[C@@H](O)[C@@H](O[C@H]4[C@H](O)[C@@H](O)C(O)O[C@@H]4CO)O[C@@H]3CO)O[C@@H]2CO)[C@H](O)[C@@H](O)[C@@H]1O[C@H]1O[C@H](C)[C@@H](N[C@H]2C=C(CO)[C@@H](O[C@H]3O[C@H](CO)[C@@H](O[C@H]4O[C@H](C)[C@@H](N[C@H]5C=C(CO)[C@@H](O)[C@H](O)[C@H]5O)[C@H](O)[C@H]4O)[C@H](O)[C@H]3O)[C@H](O)[C@H]2O)[C@H](O)[C@H]1O` (stereo partly drawn) [Compound 16, D6-O-2-Methyl-butyryl-acarviostatin II03]: the values for the IC50 (in assay [1] (setting [2]); at pancreatic lipase (PL) (setting [3]); on sucrase) were 0.052 ± 0.003 µM, 1.34 ± 0.03 µM and 7.28 ± 0.1 µM, respectively.

Regarding `C[C@H]1O[C@H](O[C@H]2[C@H](O)[C@@H](O)[C@@H](O[C@H]3[C@H](O)[C@@H](O)[C@@H](O[C@H]4[C@H](O)[C@@H](O)C(O)O[C@@H]4CO)O[C@@H]3CO)O[C@@H]2CO)[C@H](O)[C@@H](O)[C@@H]1N[C@H]1C=C(CO)[C@@H](O[C@H]2O[C@H](CO)[C@@H](O[C@H]3O[C@H](C)[C@@H](N[C@H]4C=C(CO)[C@@H](O)[C@H](O)[C@H]4O)[C@H](O)[C@H]3O)[C@H](O)[C@H]2O)[C@H](O)[C@H]1O` (stereo partly drawn) [Compound 10, Acarviostatin II02], the values for the IC50 (in assay [1]; on pancreatic lipase (PL); at sucrase) were 0.084 ± 0.001 µM, 12.7 ± 0.76 µM and 13.1 ± 0.55 µM, respectively.

As to `CCC(=O)OC[C@H]1O[C@H](O[C@H]2[C@H](O)[C@@H](O)[C@@H](O[C@H]3[C@H](O)[C@@H](O)[C@@H](O[C@H]4[C@H](O)[C@@H](O)C(O)O[C@@H]4CO)O[C@@H]3CO)O[C@@H]2CO)[C@H](O)[C@@H](O)[C@@H]1O[C@H]1O[C@H](C)[C@@H](N[C@H]2C=C(CO)[C@@H](O[C@H]3O[C@H](CO)[C@@H](O[C@H]4O[C@H](C)[C@@H](N[C@H]5C=C(CO)[C@@H](O)[C@H](O)[C@H]5O)[C@H](O)[C@H]4O)[C@H](O)[C@H]3O)[C@H](O)[C@H]2O)[C@H](O)[C@H]1O` (stereo partly drawn) [Compound 14, D6-O-Propionyl-acarviostatin II03], the IC50 in assay [1] (setting [2]) turned out to be 0.035 ± 0.001 µM; on pancreatic lipase (PL) (setting [3]), 4.21 ± 0.03 µM; on sucrase, 2.56 ± 0.12 µM.
